Patent publication US9206229B2, “Bortezomib esters and formulations thereof” (CHEMI S.P.A., priority 2012, dated 2015)
Where two headings read alike, the source gives them in different places.

How the values were obtained:
[1] = Stability tests of (5+5) bis bortezomib tartrate III in solid form (HPLC purity); format: physicochemical
Method: (5+5) Bis-bortezomib tartrate III, prepared as described in example 2, and the solid formulations containing (5+5) bis-bortezomib tartrate III, prepared as described in examples 3 and 4, were put into glass vials with screw plug and hermetic closure and undergone stability tests under the following conditions: […]
temperature 25° C. and 60% relative humidity temperature 40° C. and 75% relative humidity
The HPLC method used for the purity analysis was the following:
• UV Detector: SPD 10AVP • auto-sampler: SIL-ADVP Wavelength: 270 nm Column: Biobasic-18-Peek Bio-inert • length: 250 mm • I.D.: 2.1 mm • Particle size: 5 μm • (thermo scientific Cat.N.72105-252168 or equivalent) Injection: 3 μl Column temperature: room Sampler temperature: room Flow rate: 0.3 ml/min Mobile phase: eluent A: 95% gradient • Eluent B: 5% Analysis time: 60 minutes Eluent A: 0.1% v/v formic acid in water for HPLC Eluent B: 0.1% v/v formic acid in acetonitrile for gradient Diluent: acetonitrile:water for HPLC=80:20 Blank: diluent Gradient program:
Weigh about 50 mg sample and transfer the substance into a 100 ml flask. Dissolve and bring to volume with diluent. Sonicate up to complete dissolution (analyte content about 0.5 mg/ml).
Calculate the percentage of each known and unknown impurity as percentage area by using the following formula (peaks of the blank and peaks with area <0.05% to be ignored).
[formula] Axc: peak area of the impurity in the sample Atot: total area of the peaks of the chromatogram Purity(A%)=100−Σ1Imp (i) The peak corresponding to bortezomib is eluted at 28 minutes±2.
In the following tables the data obtained from the stability tests after two and four weeks are reported.

[2] = Stability tests of powders stored at 40° C. for months (examples 12, 14, 17), HPLC purity; format: physicochemical; conditions: powder
Method: Samples of the powder obtained in example 11 were stored in glass vials with screw cap and hermetic closure and undergone stability tests at 40° C. and 75% relative humidity. Their purity was checked during the time. In the following table the purity data of the samples under stability test obtained by using the HPLC method described in example 9 are reported.
Samples of the powder obtained in example 13 were stored in glass vials with screw cap and hermetic closure and undergone stability tests at 40° C. and 75% relative humidity. In the following table the purity data obtained by using the HPLC method described in example 9 are reported.
In the following table the data of the HPLC purity analysis of the powder at time 0 and after 1 month, 2 months and 3 months of storage in glass vials with screw plug and hermetic closure at 40° C. are reported.

[3] = cited from earlier work
[4] = 2 weeks 25° C., 60% relative humidity
[5] = 2 weeks 40° C., 75% relative humidity
[6] = 2 months 40° C. (75% relative humidity stated in examples 12, 14)
[7] = 3 months 40° C. (75% relative humidity stated in examples 12, 14)
[8] = 1 month 40° C. (75% relative humidity stated in examples 12, 14)

| Structure (SMILES) | HPLC peak area, relative retention time 0.87 (retention time 23.58 min) [2, 6] | HPLC peak area, relative retention time 1.037 (retention time 28.00 min) [2, 6] | HPLC peak area, relative retention time 1.07 (retention time 28.77 min) [2, 6] | HPLC purity, peak at relative retention time 1.00 (retention time 27.00 min) [2, 6] | HPLC peak area, relative retention time 0.87 (retention time 23.58 min) [2, 7] | HPLC peak area, relative retention time 0.95 (retention time 25.78 min) [2, 7] | HPLC peak area, relative retention time 1.037 (retention time 28.00 min) [2, 7] | HPLC purity, peak at relative retention time 1.00 (retention time 27.00 min) [2, 7] | HPLC peak area, relative retention time 1.037 (retention time 28.00 min) ([2]; t0) | HPLC purity, peak at relative retention time 1.00 (retention time 27.00 min) ([2]; t0) | other results |
| --- | --- | --- | --- | --- | --- | --- | --- | --- | --- | --- | --- |
| CC(C)C[C@H](NC(=O)C(Cc1ccccc1)NC(=O)c1cnccn1)B1OC(=O)C(C2OB([C@H](CC(C)C)NC(=O)C(Cc3ccccc3)NC(=O)c3cnccn3)OC2=O)O1 (stereo partly drawn) [Example 2, (5+5) Bis-Bortezomib L-Tartrate III] |  |  |  |  |  |  |  |  |  |  | HPLC peak area, relative retention time 0.91 (retention time 24.57 min) [1, 4]: 0.02 A%; HPLC peak area, relative retention time 0.95 (retention time 25.78 min) [1, 4]: 0.02 A%; HPLC peak area, relative retention time 1.07 (retention time 28.77 min) [1, 4]: 0.01 A%; HPLC purity, peak at relative retention time 1.00 (retention time 27.00 min) [1, 4]: 99.94 A%; HPLC peak area, relative retention time 0.95 (retention time 25.78 min) [1, 5]: 0.18 A%; HPLC peak area, relative retention time 1.07 (retention time 28.77 min) [1, 5]: 0.01 A%; HPLC purity, peak at relative retention time 1.00 (retention time 27.00 min) [1, 5]: 99.82 A%; HPLC peak area, relative retention time 0.91 (retention time 24.57 min) ([1]; t0): 0.02 A%; HPLC peak area, relative retention time 0.95 (retention time 25.78 min) ([1]; t0): 0.07 A%; HPLC peak area, relative retention time 1.07 (retention time 28.77 min) ([1]; t0): 0.01 A%; HPLC purity, peak at relative retention time 1.00 (retention time 27.00 min) ([1]; t0): 99.90 A% |
| CC(C)C[C@H](NC(=O)C(Cc1ccccc1)NC(=O)c1cnccn1)B1OC(=O)C(C2OB([C@H](CC(C)C)NC(=O)C(Cc3ccccc3)NC(=O)c3cnccn3)OC2=O)O1 (stereo partly drawn) [Example 11, (5+5) Bis Bortezomib L-Tartrate III] | 0.15 A% | 0.02 A% | 0.04 A% | 99.67 A% | 0.66 A% | 0.07 A% | 0.38 A% | 98.72 A% | 0.01 A% | 99.99 A% | HPLC peak area, relative retention time 1.07 (retention time 28.77 min) [2, 7]: 0.18 A% |
| CC(C)C[C@H](NC(=O)[C@H](Cc1ccccc1)NC(=O)c1cnccn1)B1OC(=O)[C@@H]([C@H]2OB([C@H](CC(C)C)NC(=O)[C@H](Cc3ccccc3)NC(=O)c3cnccn3)OC2=O)O1 [Example 13, (5+5) Bis Bortezomib L-Tartrate III] | 0.61 A% | 0.34 A% | 0.13 A% | 98.85 A% | 0.07 A% | 0.04 A% | 0.02 A% | 99.85 A% | 0.02 A% | 99.94 A% | HPLC peak area, relative retention time 0.87 (retention time 23.58 min) [2, 8]: 0.05 A%; HPLC peak area, relative retention time 1.037 (retention time 28.00 min) [2, 8]: 0.02 A%; HPLC purity, peak at relative retention time 1.00 (retention time 27.00 min) [2, 8]: 99.93 A%; HPLC peak area, relative retention time 0.95 (retention time 25.78 min) [2, 6]: 0.07 A%; HPLC peak area, relative retention time 0.87 (retention time 23.58 min) ([2]; t0): 0.02 A% |
| CC(C)C[C@H](NC(=O)[C@H](Cc1ccccc1)NC(=O)c1cnccn1)B(O)O [bortezomib] |  |  |  |  |  |  |  |  |  |  | time for which stable on storage ([3]; stored at 2-8° C.): 3-6 months; HPLC purity ([3]; stored at −20° C. for more than 2 years): > 97%; time for which stable on storage ([3]; stored at −20° C.): more than 2 years |
